Assays:
Assay type in all cases: toxicity, cell-based
U2OS = test: Incucyte cell viability with U2OS; settings: human, 10 µM, compound concentration 10 uM
Fibroblast = test: Incucyte cell viability with human fibroblast; settings: 10 µM, compound concentration 10 uM
HEK-293T = test: Incucyte cell viability with HEK293T; settings: human, 10 µM, compound concentration 10 uM
Also: unitless GR value; below 1 slowed growth and below 0 cell loss.

Cc1nccn1-c1ccc(Sc2cccc(C3(C(N)=O)CCOCC3)c2)cc1
Growth Rate (U2OS; 6 h, replicate number 2): 0.9 | Growth Rate (U2OS; 12 h, replicate number 1): 0.88 | Growth Rate (U2OS; 12 h, replicate number 2): 0.71 | Growth Rate (U2OS; 18 h, replicate number 2): 0.78 | Growth Rate (U2OS; 24 h, replicate number 1): 0.88 | Growth Rate (U2OS; 24 h, replicate number 2): 0.81 | Growth Rate (Fibroblast; 0 h, replicate number 2): 0.46 | Growth Rate (Fibroblast; 6 h, replicate number 1): 0.34 | Growth Rate (Fibroblast; 6 h, replicate number 2): -0.58 | Growth Rate (Fibroblast; 12 h, replicate number 1): 0.28 | Growth Rate (Fibroblast; 12 h, replicate number 2): 0.59 | Growth Rate (Fibroblast; 18 h, replicate number 1): 0.33 | Growth Rate (Fibroblast; 18 h, replicate number 2): 0.72 | Growth Rate (Fibroblast; 24 h, replicate number 1): 0.45 | Growth Rate (Fibroblast; 24 h, replicate number 2): 0.71 | Growth Rate (HEK-293T; 6 h, replicate number 1): 0.3 | Growth Rate (HEK-293T; 6 h, replicate number 2): -0.79 | Growth Rate (HEK-293T; 12 h, replicate number 1): 0.47 | Growth Rate (HEK-293T; 12 h, replicate number 2): -0.38 | Growth Rate (HEK-293T; 18 h, replicate number 1): 0.41 | Growth Rate (HEK-293T; 18 h, replicate number 2): -0.09 | Growth Rate (HEK-293T; 24 h, replicate number 1): 0.4 | Growth Rate (HEK-293T; 24 h, replicate number 2): 0.1

CCN(CC)CCO[C@H]1CC[C@@]2(C)C(=CC[C@@H]3[C@@H]2CC[C@]2(C)C(=O)CC[C@@H]32)C1.Cl
Growth Rate (U2OS; 0 h, replicate number 1): 0.56 | Growth Rate (U2OS; 6 h, replicate number 1): 0.77 | Growth Rate (U2OS; 24 h, replicate number 1): 0.91 | Growth Rate (Fibroblast; 6 h, replicate number 1): 0.34 | Growth Rate (Fibroblast; 12 h, replicate number 1): -0.34 | Growth Rate (Fibroblast; 12 h, replicate number 2): -0.05 | Growth Rate (Fibroblast; 18 h, replicate number 1): -0.18 | Growth Rate (Fibroblast; 18 h, replicate number 2): -0.06 | Growth Rate (Fibroblast; 24 h, replicate number 1): -0.25 | Growth Rate (Fibroblast; 24 h, replicate number 2): -0.11 | Growth Rate (HEK-293T; 6 h, replicate number 1): 0.35 | Growth Rate (HEK-293T; 6 h, replicate number 2): 0.24 | Growth Rate (HEK-293T; 12 h, replicate number 1): 0.32 | Growth Rate (HEK-293T; 12 h, replicate number 2): 0.31 | Growth Rate (HEK-293T; 18 h, replicate number 1): 0.45 | Growth Rate (HEK-293T; 18 h, replicate number 2): 0.42 | Growth Rate (HEK-293T; 24 h, replicate number 1): 0.53 | Growth Rate (HEK-293T; 24 h, replicate number 2): 0.52

Cc1cc2nc(N3CCC(C(=O)NC4CCCC4)CC3)n(C(C)C)c2cc1C
Growth Rate (U2OS; 0 h, replicate number 2): -0.6 | Growth Rate (U2OS; 6 h, replicate number 2): 0.39 | Growth Rate (U2OS; 12 h, replicate number 1): 0.79 | Growth Rate (U2OS; 12 h, replicate number 2): 0.47 | Growth Rate (U2OS; 18 h, replicate number 2): 0.67 | Growth Rate (U2OS; 24 h, replicate number 1): 0.95 | Growth Rate (U2OS; 24 h, replicate number 2): 0.8 | Growth Rate (Fibroblast; 0 h, replicate number 1): -1 | Growth Rate (Fibroblast; 6 h, replicate number 1): 0.17 | Growth Rate (Fibroblast; 12 h, replicate number 1): 0.26 | Growth Rate (Fibroblast; 12 h, replicate number 2): 0.74 | Growth Rate (Fibroblast; 18 h, replicate number 1): 0.48 | Growth Rate (Fibroblast; 18 h, replicate number 2): 0.7 | Growth Rate (Fibroblast; 24 h, replicate number 1): 0.4 | Growth Rate (Fibroblast; 24 h, replicate number 2): 0.78 | Growth Rate (HEK-293T; 6 h, replicate number 1): 0.3 | Growth Rate (HEK-293T; 12 h, replicate number 1): 0.77 | Growth Rate (HEK-293T; 18 h, replicate number 1): 0.97 | Growth Rate (HEK-293T; 24 h, replicate number 1): 0.88

Cc1cc(C)nc(Nc2ncc(C(=O)NCCc3c(C)[nH]c4ccccc34)cn2)c1.Cl
Growth Rate (U2OS; 0 h, replicate number 2): 0.92 | Growth Rate (U2OS; 6 h, replicate number 1): 0.56 | Growth Rate (U2OS; 6 h, replicate number 2): 0.75 | Growth Rate (U2OS; 12 h, replicate number 1): 0.79 | Growth Rate (U2OS; 12 h, replicate number 2): 0.87 | Growth Rate (U2OS; 18 h, replicate number 1): 0.77 | Growth Rate (U2OS; 24 h, replicate number 1): 0.98 | Growth Rate (Fibroblast; 0 h, replicate number 1): -1 | Growth Rate (Fibroblast; 24 h, replicate number 2): 0.93 | Growth Rate (HEK-293T; 6 h, replicate number 1): 0.92 | Growth Rate (HEK-293T; 6 h, replicate number 2): 0.14 | Growth Rate (HEK-293T; 12 h, replicate number 2): 0.82 | Growth Rate (HEK-293T; 18 h, replicate number 1): 0.94 | Growth Rate (HEK-293T; 18 h, replicate number 2): 1 | Growth Rate (HEK-293T; 24 h, replicate number 1): 0.99

Cc1nc2ccc(Oc3ccc(F)cc3)cc2c(=O)n1C[C@H]1CCCN(C(C)C)C1.Cl
Growth Rate (U2OS; 0 h, replicate number 1): 0.57 | Growth Rate (U2OS; 0 h, replicate number 2): -0.36 | Growth Rate (U2OS; 6 h, replicate number 1): 0.84 | Growth Rate (U2OS; 24 h, replicate number 1): 0.95 | Growth Rate (Fibroblast; 0 h, replicate number 1): -1 | Growth Rate (Fibroblast; 6 h, replicate number 1): 0.24 | Growth Rate (Fibroblast; 12 h, replicate number 1): 0.12 | Growth Rate (Fibroblast; 12 h, replicate number 2): 0.34 | Growth Rate (Fibroblast; 18 h, replicate number 1): 0.13 | Growth Rate (Fibroblast; 18 h, replicate number 2): 0.69 | Growth Rate (Fibroblast; 24 h, replicate number 1): 0.18 | Growth Rate (Fibroblast; 24 h, replicate number 2): 0.73 | Growth Rate (HEK-293T; 6 h, replicate number 1): 0.43 | Growth Rate (HEK-293T; 6 h, replicate number 2): 0.87 | Growth Rate (HEK-293T; 12 h, replicate number 1): 0.27 | Growth Rate (HEK-293T; 12 h, replicate number 2): 0.35 | Growth Rate (HEK-293T; 18 h, replicate number 1): 0.16 | Growth Rate (HEK-293T; 18 h, replicate number 2): 0.4 | Growth Rate (HEK-293T; 24 h, replicate number 1): 0.17 | Growth Rate (HEK-293T; 24 h, replicate number 2): 0.23

From ChEMBL document CHEMBL5303304, “EUbOPEN Chemogenomics Library - IncuCyte” (2023)
